Results as given in patent US20240415825A1, “COMPOUNDS FOR THE TREATMENT OF MALARIA” (FUNDACIÓ INSTITUT DE BIOENGINYERIA DE CATALUNYA, priority 2021, published 2024).
Entries after “also recorded” stand apart in the source; their conditions may differ. Read-outs that look alike come from different tables or passages of the source.

Experiments:
[1] = test system: P. falciparum K1 strain; assay: P. falciparum growth inhibition (K1 strain); type: cell-based; settings: Plasmodium falciparum, read-out: IC50 in K1 strain (μM) ± SEM
[2] = test system: Plasmodium berghei CTRP-GFP; assay: Gametocyte to ookinete transition inhibition; type: cell-based; settings: up to a concentration of 2 μM
Protocol: Eight days before ookinete production, 200 μL of Plasmodium berghei CTRP-GFP (which expresses GFP when reaching ookinete stage) (Vlachou, D. et al., 2004) in cryopreservation solution (RBC pellet:RPMI:30% glycerol in water, 1:1:2) was administered i.p. to a BALB/c mouse. Four days later this mouse was the donor to infect i.p. with 5×10^7 parasitized red blood cells in 200 μL of PBS three mice that one hour before the infection had been pretreated i.p. with phenylhydrazine (120 μL of a 10 mg/mL solution in PBS).
For ookinete production, up to 1 mL of blood carrying gametocytes was collected from each animal by intracardiac puncture and diluted in 30 mL of ookinete medium: 10.4 g/L of RPMI supplemented with […], 0.05% w/v hypoxanthine, 0.02% w/v xanthurenic acid, 50 U/mL penicillin and 50 μg/mL streptomycin (Invitrogen), 20% heat-inactivated fetal bovine serum (FBS, Invitrogen), 25 mM HEPES, pH 7.4.
24 h later, samples were diluted 1:100 in PBS and analyzed in a LSRFortessa™ flow cytometer (BD Biosciences) set up with the 5 lasers, 20 parameters standard configuration. The GFP positive cell population was selected and counted using 488 nm laser excitation and a 525/40 nm emission collection filter. BD FACSDiva software (BD biosciences) was used in data collection, and Flowing Software 2.5.1 (Turku Centre for Biotechnology) was used for analysis.

[3] = In vivo toxicity assay in mice; parameters: species or system BALB/c mice; settings: male mice
Protocol: BALB/c female and male mice (Janvier Laboratories) were maintained with unlimited access to food and water under standard environmental conditions (20-24° C. and 12/12 h light/dark cycle). […] First, the lowest dose was intravenously injected to one female and one male mice. An oxygen stream of 4% isoflurane was used to anesthetize the mice, which were then maintained during the whole procedure (less than 3 minutes) with 2.5% isoflurane.
After the administration, mice were observed and different parameters related to their behavior (lethargy, motility alterations, seizures, coma, automutilation, aggressiveness, vocalizations, stereotyped movements) and physical conditions (pain, respiratory disturbances, tachycardia or bradycardia, dehydration, hair loss, body weight loss, dermatitis, bad hygiene, pruritus, tearing) were followed. If after 48 h no deleterious effects were observed, the following dose was administered to two other male and female mice.

[4] = test system: P. falciparum NF54-gexp02-Tom strain gametocytes; assay: microbe, parasite or virus in culture; type: cell-based; settings: Plasmodium falciparum, NF54, 48 h, read-out: IC50 on early gametocytes
Protocol: Cultures of the P. falciparum NF54-gexp02-Tom strain (developed and authenticated by Portugaliza, H. P. et al., 2019 and kindly provided by Prof. Alfred Cortes), were maintained in standard conditions in RPMI medium supplemented with 0.5% Albumax II and 2 mM choline, synchronized in ring stages with sorbitol lysis, and diluted to 2% parasitemia. To trigger sexual conversion, choline was removed from the medium and cultures were maintained in the same conditions for 48 h after synchronization (cycle 0). In the next cycle (cycle 1), parasites were treated with 50 mM N-acetylglucosamine (GlcNac) in order to kill asexual parasites, and maintained in RPMI supplemented with 10% human serum. Medium was refreshed daily and GlcNac was kept during 4 days.
Controls of untreated parasites as well as of parasites treated with a lethal dose of chloroquine were prepared. Gametocytemia was monitored daily by light microscopy until the majority of parasites (˜90%) could be identified as stage V gametocytes. At that point, Giemsa smears of each well were prepared and mature gametocytes were manually counted (10,000 cells were counted for each replica by two investigators blinded to group assignment). […] Afterwards, the culture was treated for 48 h with the drugs and the gametocytemia determined as above.

[5] = test system: P. falciparum 3D7 strain; assay: P. falciparum growth inhibition assay (3D7 strain); type: cell-based, Plasmodium falciparum; settings: for IC50: Plasmodium falciparum
Protocol: After the synchronization process, a new culture at 1.5% parasitemia and 2% hematocrit was established and 150 μL aliquots of it were transferred to 96-well plates.
The required amounts of peptides, antimalarial compounds and dyes were added in each well at different concentrations and in triplicates. A positive growth control of untreated parasites and a negative growth control of parasites treated with a lethal dose of chloroquine (1 μM) were also included.
Parasites were grown for 48 h, a complete replication cycle, in standard culturing conditions (5% O2, 5% CO2, and 90% N2 at 37° C.). After the incubation period, 3 μL of culture from each well were mixed with 197 μL of PBS containing 0.1 μM Syto 11 (Thermo Fisher Scientific Inc), to obtain a final concentration of ca. 1-10×10^6 cells/ml.
Parasitemia was assessed by flow cytometry using a LSRFortessa flow cytometer (BD Biosciences, San Jose, CA, USA) set up with the 4 lasers, 20 parameters standard configuration. The single-cell population was selected on a forward-side scatter scattergram.
Growth inhibition was calculated taking as reference values both the growth rate of the untreated culture and the growth rate of the culture treated with chloroquine.

[6] = test system: human umbilical vein endothelial cell cultures; assay: Cytotoxicity (CC50) and in vitro therapeutic index; type: cell-based; settings: 50% cytotoxic concentration (CC50)/IC50 in 3D7 strain
[7] = 3D7 strain, Example 8, read-out: IC50 in 3D7 strain

Row | Structure (SMILES) | antimalarial / antiplasmodial activity in vitro ([5]; 3D7 strain) | IC50 [5, 7] [µM] | further results
1 | COc1cc2c(cc1OC)C(=O)C(CC1CCN(CNc3c4c(nc5cc(Cl)ccc35)CCCC4)CC1)C2 (centres unmarked) [DONE3TCI] | – | – | IC50 [1]: 0.36 ± 0.07 µM; effect on ookinete development [2]: did not have an observable effect; also recorded: does not show any observable effect; dose at which toxicity starts being observed [3]: 3 mg/kg; IC50 [4]: 285 ± 56 nM
2 | O=C(NCNc1c2c(nc3cc(Cl)ccc13)CCCC2)c1ccc2nc(-c3ccc(Cl)cc3)c3c(c2c1)NCCC3 [DP128, reference compound] | – | – | IC50 ([5]; 3D7, 48 h, read-out: IC50 in 3D7 strain (μM) ± SEM): 0.65 ± 0.14 µM; Therapeutic index in vitro [6]: 75.4
3 | CCN(CC)c1ccc(/C=C/c2cc[n+](CCCCCCCCC[n+]3ccc(/C=C/c4ccc(N(CC)CC)cc4)c(C)c3)cc2C)cc1.[Br-].[Br-] [PRC-25, 1,1′-(nonane-1,9-diyl)bis{4-[(E)-4-(diethylamino)styryl]-3-methylpyridin-1-ium} dibromide] | potent antimalarial activity | 0.05 | IC50 ([5]; 3D7 strain, read-out: IC50 in P. falciparum in vitro cultures): 0.047 µM
4 | CCN(CC)c1ccc(/C=C/c2cc[n+](CCOCCOCCOCC[n+]3ccc(/C=C/c4ccc(N(CC)CC)cc4)c(C)c3)cc2C)cc1 [PRC-28, 1,1′-(3,6,9-trioxaundecane-1,11-diyl)bis{4-[(E)-4-(diethylamino)styryl]-3-methylpyridin-1-ium} dichloride] | – | 0.25 | –
5 | CCN(CC)c1ccc(/C=C/c2cc[n+](Cc3ccc(C[n+]4ccc(/C=C/c5ccc(N(CC)CC)cc5)c(C)c4)cc3)cc2C)cc1 [PRC-29, 1,1′-[1,4-phenylenebis(methylene)]bis{4-[(E)-4-(diethylamino)styryl]-3-methylpyridin-1-ium} dibromide] | – | 0.46 | –
6 | CCN(CC)c1ccc(/C=C/c2cc[n+](Cc3cccc(C[n+]4ccc(/C=C/c5ccc(N(CC)CC)cc5)c(C)c4)c3)cc2C)cc1 [PRC-31, 1,1′-[1,3-phenylenebis(methylene)]bis{4-[(E)-4-(diethylamino)styryl]-3-methylpyridin-1-ium} dibromide] | – | 0.54 | –
7 | CCN(CC)c1ccc(/C=C/c2cc[n+](CCCCCCCCCC[n+]3ccc(/C=C/c4ccc(N(CC)CC)cc4)cc3)cc2)cc1.[Br-].[Br-] [PRC-39, 1,1′-(decane-1,10-diyl)bis{4-[(E)-4-(diethylamino)styryl]pyridin-1-ium} dibromide] | potent antimalarial activity | 0.15 | –
8 | CCN(CC)c1ccc(/C=C/c2cc[n+](CCCCCCCCCC[n+]3ccc(/C=C/c4ccc(N(CC)CC)cc4)c(Br)c3)cc2Br)cc1.[Br-].[Br-] [PRC-42, 1,1′-(decane-1,10-diyl)bis{3-bromo-4-[(E)-4-(diethylamino)styryl]pyridin-1-ium} dibromide] | potent antimalarial activity | 0.1 | –
9 | CCN(CC)c1ccc(/C=C/c2cc[n+](CCCCCCCCCC[n+]3ccc(/C=C/c4ccc(N(CC)CC)cc4)c(Cl)c3)cc2Cl)cc1.[Br-].[Br-] [PRC-50, 1,1′-(decane-1,10-diyl)bis{3-chloro-4-[(E)-4-(diethylamino)styryl]pyridin-1-ium} dibromide] | potent antimalarial activity | 0.1 | –
10 | Cc1ccc2c(c1)sc(-c1ccc(N(C)C)cc1)[n+]2C.[Cl-] [ThT, Thioflavin T, reference compound] | did not exhibit significant antiplasmodial activity | – | IC50 ([5]; 3D7 strain, 48 h, Table 2, read-out: IC50 in 3D7 strain (μM) ± SEM): 1.57 ± 0.23 µM
